Experimental data as given in PubChem BioAssay AID2060887 (Molecular Pharmacology Branch, DTP, NCI, 2025).

Test system: 782815-120-R-J1-PDC complex spheroid viability
Experiment: Anticancer human tumor 782815-120-R-J1-PDC patient-derived colon adenocarcinoma cell line growth inhibition [RAS]
Conditions: for IC50: curve of first compound; for viability, T/C: stronger effect = lower value; active = viability on the fitted dose curve at most 10% of control; inactive = the rest
Outline: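 Tumour cells grown as complex spheroids with HUVEC endothelial cells and mesenchymal stem cells, treated with RAS pathway inhibitor combinations. Each agent spans half-log steps from near clinical Cmax, or 10 microM where Cmax is unknown.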

[1] = second compound 0.000949 µM, first compound 0.000949 µM
[2] = second compound 0.000949 µM, first compound 0.003 µM
[3] = second compound 0.000949 µM, first compound 0.00949 µM
[4] = second compound 0.000949 µM, first compound 0.03 µM
[5] = second compound 0.000949 µM, first compound 0.0949 µM
[6] = second compound 0.000949 µM, first compound 0.3 µM
[7] = second compound 0.003 µM, first compound 0.000949 µM
[8] = second compound 0.003 µM, first compound 0.003 µM
[9] = second compound 0.003 µM, first compound 0.00949 µM
[10] = second compound 0.003 µM, first compound 0.03 µM
[11] = second compound 0.003 µM, first compound 0.0949 µM
[12] = second compound 0.003 µM, first compound 0.3 µM
[13] = second compound 0.00949 µM, first compound 0.000949 µM
[14] = second compound 0.00949 µM, first compound 0.003 µM
[15] = second compound 0.00949 µM, first compound 0.00949 µM
[16] = second compound 0.00949 µM, first compound 0.03 µM
[17] = second compound 0.00949 µM, first compound 0.0949 µM
[18] = second compound 0.00949 µM, first compound 0.3 µM
[19] = second compound 0.03 µM, first compound 0.000949 µM
[20] = second compound 0.03 µM, first compound 0.003 µM
[21] = second compound 0.03 µM, first compound 0.00949 µM
[22] = second compound 0.03 µM, first compound 0.03 µM
[23] = second compound 0.03 µM, first compound 0.0949 µM
[24] = second compound 0.03 µM, first compound 0.3 µM
[25] = second compound 0.0949 µM, first compound 0.000949 µM
[26] = second compound 0.0949 µM, first compound 0.003 µM
[27] = second compound 0.0949 µM, first compound 0.00949 µM
[28] = second compound 0.0949 µM, first compound 0.03 µM
[29] = second compound 0.0949 µM, first compound 0.0949 µM
[30] = second compound 0.0949 µM, first compound 0.3 µM
[31] = second compound 0.3 µM, first compound 0.000949 µM
[32] = second compound 0.3 µM, first compound 0.003 µM
[33] = second compound 0.3 µM, first compound 0.00949 µM
[34] = second compound 0.3 µM, first compound 0.03 µM
[35] = second compound 0.3 µM, first compound 0.0949 µM
[36] = second compound 0.3 µM, first compound 0.3 µM
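Note: spheroids exposed to compounds for 7 days before reading.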
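Throughout, for viability, T/C: 100% = DMSO vehicle control viability.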

C=CC(=O)N1CCN(c2nc(OCC3CCCN3C)nc3c(F)c(-c4nc(N)cc(C)c4C(F)(F)F)c(Cl)cc23)C(C)C1 (stereo unspecified) + CCn1c(-c2cccnc2C(C)OC)c2c3cc(ccc31)N1CCOC(CC(NC(=O)C(C(C)C)N(C)C(=O)C3(F)CCN(C(=O)C#CC(C)(C)N(C)C)CC3)C(=O)N3CCCC(N3)C(=O)OCC(C)(C)C2)C1
inactive: viability, T/C (second compound 0.000949 µM, first compound 0.00316 µM) 95.1% | viability, T/C (second compound 0.000949 µM, first compound 0.01 µM) 96% | viability, T/C (second compound 0.000949 µM, first compound 0.0316 µM) 101% | viability, T/C (second compound 0.000949 µM, first compound 0.1 µM) 83.2% | viability, T/C (second compound 0.000949 µM, first compound 0.316 µM) 94.4% | viability, T/C (second compound 0.000949 µM, first compound 1 µM) 94.5% | viability, T/C (second compound 0.003 µM, first compound 0.00316 µM) 91.3% | viability, T/C (second compound 0.003 µM, first compound 0.01 µM) 97% | viability, T/C (second compound 0.003 µM, first compound 0.0316 µM) 101% | viability, T/C (second compound 0.003 µM, first compound 0.1 µM) 94.8% | viability, T/C (second compound 0.003 µM, first compound 0.316 µM) 93.3% | viability, T/C (second compound 0.003 µM, first compound 1 µM) 94.7% | viability, T/C (second compound 0.00949 µM, first compound 0.00316 µM) 87.2% | viability, T/C (second compound 0.00949 µM, first compound 0.01 µM) 97.2% | viability, T/C (second compound 0.00949 µM, first compound 0.0316 µM) 89.4% | viability, T/C (second compound 0.00949 µM, first compound 0.1 µM) 95.6% | viability, T/C (second compound 0.00949 µM, first compound 0.316 µM) 92.9% | viability, T/C (second compound 0.00949 µM, first compound 1 µM) 99.1% | viability, T/C (second compound 0.03 µM, first compound 0.00316 µM) 86.8% | viability, T/C (second compound 0.03 µM, first compound 0.01 µM) 95% | viability, T/C (second compound 0.03 µM, first compound 0.0316 µM) 87% | viability, T/C (second compound 0.03 µM, first compound 0.1 µM) 99.4% | viability, T/C (second compound 0.03 µM, first compound 0.316 µM) 94.4% | viability, T/C (second compound 0.03 µM, first compound 1 µM) 92.1% | viability, T/C (second compound 0.0949 µM, first compound 0.00316 µM) 86.8% | viability, T/C (second compound 0.0949 µM, first compound 0.01 µM) 105% | viability, T/C (second compound 0.0949 µM, first compound 0.0316 µM) 99% | viability, T/C (second compound 0.0949 µM, first compound 0.1 µM) 101% | viability, T/C (second compound 0.0949 µM, first compound 0.316 µM) 101% | viability, T/C (second compound 0.0949 µM, first compound 1 µM) 96.4% | viability, T/C (second compound 0.3 µM, first compound 0.00316 µM) 93.4% | viability, T/C (second compound 0.3 µM, first compound 0.01 µM) 84.3% | viability, T/C (second compound 0.3 µM, first compound 0.0316 µM) 97.5% | viability, T/C (second compound 0.3 µM, first compound 0.1 µM) 91.2% | viability, T/C (second compound 0.3 µM, first compound 0.316 µM) 89.3% | viability, T/C (second compound 0.3 µM, first compound 1 µM) 87.4%
> 1000 nM: IC50 (second compound 0.000949 µM) | IC50 (second compound 0.003 µM) | IC50 (second compound 0.00949 µM) | IC50 (second compound 0.03 µM) | IC50 (second compound 0.0949 µM) | IC50 (second compound 0.3 µM)

CC1(C)CCC(Nc2ncc(C(F)(F)F)c(-c3c[nH]c4c(P(C)(C)=O)c(C#N)ccc34)n2)CN1 (stereo unspecified) + CCn1c(-c2cccnc2C(C)OC)c2c3cc(ccc31)N1CCOC(CC(NC(=O)C(C(C)C)N(C)C(=O)C3(F)CCN(C(=O)C#CC(C)(C)N(C)C)CC3)C(=O)N3CCCC(N3)C(=O)OCC(C)(C)C2)C1
43.5 nM: IC50 (second compound 0.003 µM)
inactive: viability, T/C [1] 105% | viability, T/C [2] 93.1% | viability, T/C [3] 68.5% | viability, T/C [4] 51% | viability, T/C [5] 49.8% | viability, T/C [6] 41.2% | viability, T/C [7] 91.5% | viability, T/C [8] 89.2% | viability, T/C [9] 81.8% | viability, T/C [10] 52.1% | viability, T/C [11] 45.8% | viability, T/C [12] 44.3% | viability, T/C [13] 90.5% | viability, T/C [14] 93.7% | viability, T/C [15] 83.2% | viability, T/C [16] 54.1% | viability, T/C [17] 51.6% | viability, T/C [18] 44.6% | viability, T/C [19] 86.1% | viability, T/C [20] 88.8% | viability, T/C [21] 78.4% | viability, T/C [22] 54.9% | viability, T/C [23] 44.1% | viability, T/C [24] 47.6% | viability, T/C [25] 107% | viability, T/C [26] 83.6% | viability, T/C [27] 70.3% | viability, T/C [28] 56.8% | viability, T/C [29] 45.5% | viability, T/C [30] 39.9% | viability, T/C [31] 83.9% | viability, T/C [32] 86.6% | viability, T/C [33] 65% | viability, T/C [34] 52.2% | viability, T/C [35] 39.4% | viability, T/C [36] 36.3%
67.2 nM: IC50 (second compound 0.00949 µM)
56.3 nM: IC50 (second compound 0.03 µM)
30.1 nM: IC50 (second compound 0.3 µM)
62.4 nM: IC50 (second compound 0.0949 µM)
42.5 nM: IC50 (second compound 0.000949 µM)

CCc1c2c(nc3ccc(O)cc13)-c1cc3c(c(=O)n1C2)COC(=O)[C@]3(O)CC + CCn1c(-c2cccnc2C(C)OC)c2c3cc(ccc31)N1CCOC(CC(NC(=O)C(C(C)C)N(C)C(=O)C3(F)CCN(C(=O)C#CC(C)(C)N(C)C)CC3)C(=O)N3CCCC(N3)C(=O)OCC(C)(C)C2)C1
3.69 nM: IC50 (second compound 0.0949 µM)
3.98 nM: IC50 (second compound 0.00949 µM)
3.95 nM: IC50 (second compound 0.003 µM)
2.91 nM: IC50 (second compound 0.03 µM)
active: viability, T/C [4] 8.78% | viability, T/C [5] 2.94% | viability, T/C [6] 1.62% | viability, T/C [10] 9.28% | viability, T/C [11] 4.83% | viability, T/C [12] 1.63% | viability, T/C [16] 11.7% | viability, T/C [17] 3.57% | viability, T/C [18] 1.64% | viability, T/C [22] 10.1% | viability, T/C [23] 4.83% | viability, T/C [24] 1.53% | viability, T/C [28] 8.68% | viability, T/C [29] 5.21% | viability, T/C [30] 1.73% | viability, T/C [34] 8.17% | viability, T/C [35] 2.87% | viability, T/C [36] 1.16%
3.67 nM: IC50 (second compound 0.000949 µM)
inactive: viability, T/C [1] 84% | viability, T/C [2] 56.1% | viability, T/C [3] 22.1% | viability, T/C [7] 89.9% | viability, T/C [8] 59.1% | viability, T/C [9] 21.3% | viability, T/C [13] 86.5% | viability, T/C [14] 59.2% | viability, T/C [15] 22.6% | viability, T/C [19] 91.9% | viability, T/C [20] 49.3% | viability, T/C [21] 19% | viability, T/C [25] 82.5% | viability, T/C [26] 57% | viability, T/C [27] 18.8% | viability, T/C [31] 86.1% | viability, T/C [32] 53% | viability, T/C [33] 15.4%
3.26 nM: IC50 (second compound 0.3 µM)
